Test results as given in patent publication US10202604B2, “Methods of using microRNA-141” (Stemirna Therapeutics Co., Ltd., priority 2016, dated 2019).

Key:
[1] = test system: Du145 cells; test: Boyden chamber Matrigel invasion assay; type: cell-based, human; conditions: 1, 2, and 5 μM for 96 h
Procedure: FIGS. 3A-3J show partial suppression of epithelial to mesenchymal transition by miR-141 and CD44 as a direct target of miR-141. FIGS. 3A-3B show qPCR analysis of epithelial to mesenchymal transition markers in bulk (FIG. 3A) or CD44^+ (FIG. 3B) Du145 cells transfected with the miR-141 oligos (30 nM; 48 h). Results were presented as the relative expression levels over the cells transfected with the NC oligos. […] GAPDH was used as control and the relative protein levels after normalizing to GAPDH and NC controls were indicated below each lane. […] Shown below is the actual sequence in the region with the mutated miR-141 binding sequence indicated in grey (below). […] Shown are representative images. […]
Du145 cells transfected with NC or miR-141 oligos at the two doses and time intervals indicated were used in Western blotting. Indicated below are relative expression levels (normalized to respective GAPDH and compared to NC) of each protein determined by densitometric scanning of the individual bands. […]
FIG. 6A: Putative binding site of miR-141 in EZH2 3′-UTR. […] Relative protein levels were measured by densitometry and normalized to GAPDH levels (indicated below). […]
For Boyden Chamber invasion assays, Biocoat Matrigel Invasion Chamber (BD, Franklin Lakes, N.J.) was employed following the manufacturer's instructions. […] Representative images were taken for each membrane and cells were counted. […]

[2] = test system: EZH2; test: EZH2 mRNA and protein levels; type: cell-based, human; conditions: Du145 cells; 1, 2, and 5 μM for 96 h
Procedure: FIG. 6A: Putative binding site of miR-141 in EZH2 3′-UTR. […] FIG. 6C is a qPCR analysis of EZH2 mRNA levels in CD44^+ PCa cells. Bars, mean±SD. *P<0.05; **P<0.01. […] Bars, mean±SD. **P<0.01. […] Western blotting was performed in PC3 and Du145 cells transfected with NC (60 nM) or miR-141 (30 or 60 nM) oligos (72 h). Relative protein levels were measured by densitometry and normalized to GAPDH levels (indicated below). […] Du145 cells plated one day before were treated with 1, 2, and 5 μM of DZNep for 96 h and then cells were harvested for invasion assays. **P<0.01. Inset, WB showing reduced EZH2 proteins by DZNep. […] Du145 cells were transfected with 10 nM scramble siRNA (siCon) or EZH2-targeting siRNAs (siEZH2) or siEZH2 plus anti-miR-141 (30 nM). 48 h later, cells were harvested for invasion assays. Bars, mean±SD. **P<0.01. […] Du145 cells were co-transfected with 30 nM NC or miR-141 oligos together with empty vector or pCMV-EZH2 construct. After 48 h, cells were harvested for invasion assay. Bars, mean±SD. **P<0.01.
Total RNA was extracted using microRNA isolation kit (Life Technologies) according to the manufacturer's instructions. microRNA qPCRs were performed using TaqMan microRNA assays (Life Technologies). qPCR data for microRNAs were normalized to RNU48 whereas qPCR data for mRNAs were normalized to GAPDH.
For Boyden Chamber invasion assays, Biocoat Matrigel Invasion Chamber (BD, Franklin Lakes, N.J.) was employed following the manufacturer's instructions. Briefly, 100,000-200,000 of prostate cancer cells after transfection with […]/miR-141 oligos or infection with miR-141 over-expressing lentivirus were seeded into each well. Medium with 20% fetal bovine serum was used in the lower chamber as chemo-attractant. After 20 h, cells were fixed and stained using HEMA stain. Representative images were taken for each membrane and cells were counted. Migration assays were simultaneously performed in control wells using identical protocol with Transwell (Costar; 8 μl PET) without Matrigel. […]

Cl.Nc1nccc2c1ncn2[C@@H]1C=C(CO)[C@@H](O)[C@H]1O [DZNep, 3-Deazaneplanocin A hydrochloride, reference compound]
Du145 cell invasion [1]: blocked | EZH2 protein [2]: reduced
